According to patent US12435060B2, “Acylamino bridged heterocyclic compound, and composition and application thereof” (BEIJING SCITECH-MQ PHARMACEUTICALS LIMITED, priority 2019, dated 2025):

tested on: HT29 cells; test: Inhibition of cell necrosis (CCK8 method), induced programmed necrosis of HT29 cells; assay type: cell-based; conditions: Homo sapiens, HT-29; rescue from necrosis induced by TNF-α 20 ng/mL, AT-406 1 μM, Z-VAD-FMK 20 μM; 16-20 hours; CCK-8, OD 450 nm
Description: Assay Example 2. Assay Method for Compounds Inhibiting Cell Necrosis (CCK8 Method)
In this assay example 2, under the condition of inducing programmed cell necrosis, different concentrations of the test compounds were added to test the IC50 of the rescue effect of the test compounds on the programmed necrosis.
• Compounds: Dissolved in DMSO to make a 10 mM solution; • TNF-α: The initial concentration was 100 μg/mL; • Z-VAD-FMK: Dissolved in DMSO to make a 10 mM solution; • AT-406: Dissolved in DMSO to make a 10 mM solution. I. Experimental Steps • 1) Compound dilution: All test compounds were dissolved in DMSO to prepare a 10 mM stock solution, and the first concentration gradient dilution of the test compounds was completed in DMSO. The gradient dilution factor was 4 times and 9 concentration gradients were made; A 40-fold overall dilution of all compounds was completed in the cell culture medium, and the resulting compound was 10× compound, which will be added to the wells of the 96-well plate containing cells, so that the final cell culture medium was 1× the designed final concentration. The general drug design is 9 concentration gradients, of which the highest final concentration is 25000 nM, the lowest concentration after 4-fold dilution of 9 concentrations is 0.38 nM, and the final concentration of DMSO in all wells is 0.25%. The compound dilution process is shown in FIG. 3. • 2) HT 29 cells in good growth condition were selected, trypsinized, the cells was collected by centrifugation, resuspended in McCOY's 5A complete medium (containing 10% FBS) and counted, and the number of cells and survival rate were recorded. • 3) Cells were inoculated to the 60 wells in the middle of the 96-well culture plate at a density of 12000 cells/80 μL/well, surrounding wells were filled with sterile water, and incubated overnight. • 4) 10 μL of the 10× compound diluted with the medium was added to the assay wells, 10 μL of McCOY's 5A complete medium containing 2.5% DMSO was added to the inducer-free wells and the control wells, mixed and shaked, and incubated for 30 minutes. • 5) Then 10 μL of inducer mixture (TNF-α, AT-406, Z-VAD-FMK with the final concentration of 20 ng/mL, 1 μM, 20 μM) was added into the assay wells and control wells. 10 μL McCOY's 5A complete medium was added to wells without inducer. Cells were cultured in an incubator with 5% CO2, at 37° C. • 6) After culturing for 16-20 hours, 10 μL of CCK-8 reagent was added to each well, and incubated for about 2 hours; • 7) The OD value was read at 450 nm on the multi-function plate reader. • 8) Data processing: Inhibition rate of necrosis (%)=100*(X−B)/(A−B) • A: The OD values of the wells without inducer (containing cells, CCK-8, without compound and inducer); • […]: OD values of assay wells (containing cells, CCK-8, compound, inducer); • B: OD values of control wells (containing cells, CCK-8, inducer, without compound). Then the value were imported into Graphpad Prism5 software for curve fitting and the IC50 values were calculated.

Compound | IC50 [nM]
O=C(Nc1cc(-c2ccccc2)ccn1)c1nnc(Cc2ccccc2)[nH]1 [Example 1, 5-benzyl-N-(4-phenylpyridin-2-yl)-4H-1,2,4-triazole-3-carboxamide] | 1000 to 10000
COc1ccccc1-c1ccnc(NC(=O)c2nnc(Cc3ccccc3)[nH]2)c1 [Example 3, 5-benzyl-N-(4-(2-methoxyphenyl)pyridin-2-yl)-4H-1,2,4-triazole-3-carboxamide] | 1000 to 10000
CCOc1ccccc1-c1ccnc(NC(=O)c2nnc(Cc3ccccc3)[nH]2)c1 [Example 4, 5-benzyl-N-(4-(2-ethoxyphenyl)pyridin-2-yl)-4H-1,2,4-triazole-3-carboxamide] | 1000 to 10000
CC(C)Oc1ccccc1-c1ccnc(NC(=O)c2nnc(Cc3ccccc3)[nH]2)c1 [Example 5, 5-benzyl-N-(4-(2-isopropyloxyphenyl)pyridin-2-yl)-4H-1,2,4-triazole-3-carboxamide] | > 10000
O=C(Nc1cc(-c2ccccc2OC(F)(F)F)ccn1)c1nnc(Cc2ccccc2)[nH]1 [Example 6, 5-benzyl-N-(4-(2-(trifluoromethoxy)phenyl)pyridin-2-yl)-4H-1,2,4-triazole-3-carboxamide] | 1000 to 10000
O=C(Nc1cc(-c2ccccc2Cl)ccn1)c1nnc(Cc2ccccc2)[nH]1 [Example 7, 5-benzyl-N-(4-(2-chlorophenyl)pyridin-2-yl)-4H-1,2,4-triazole-3-carboxamide] | 100 to 1000
O=C(Nc1cc(-c2ccccc2C2CC2)ccn1)c1nnc(Cc2ccccc2)[nH]1 [Example 8, 5-benzyl-N-(4-(2-cyclopropylphenyl)pyridin-2-yl)-4H-1,2,4-triazole-3-carboxamide] | 1000 to 10000
COc1ccc(-c2ccnc(NC(=O)c3nnc(Cc4ccccc4)[nH]3)c2)cc1 [Example 9, 5-benzyl-N-(4-(4-methoxyphenyl)pyridin-2-yl)-4H-1,2,4-triazole-3-carboxamide] | > 10000
COc1ccc(-c2ccnc(NC(=O)c3nnc(Cc4ccccc4)[nH]3)c2)c(C)c1 [Example 10, 5-benzyl-N-(4-(4-methoxy-2-methylphenyl)pyridin-2-yl)-4H-1,2,4-triazole-3-carboxamide] | 1000 to 10000
Cc1cc(Cl)ccc1-c1ccnc(NC(=O)c2nnc(Cc3ccccc3)[nH]2)c1 [Example 11, 5-benzyl-N-(4-(4-chloro-2-methylphenyl)pyridin-2-yl)-4H-1,2,4-triazole-3-carboxamide] | 1000 to 10000
Cc1cc(C#N)ccc1-c1ccnc(NC(=O)c2nnc(Cc3ccccc3)[nH]2)c1 [Example 12, 5-benzyl-N-(4-(4-cyano-2-methylphenyl)pyridin-2-yl)-4H-1,2,4-triazole-3-carboxamide] | 100 to 1000
COc1ccc(Cl)c(-c2ccnc(NC(=O)c3nnc(Cc4ccccc4)[nH]3)c2)c1 [Example 13, 5-benzyl-N-(4-(2-chloro-5-methoxyphenyl)pyridin-2-yl)-4H-1,2,4-triazole-3-carboxamide] | 1000 to 10000
COc1ccc(F)cc1-c1ccnc(NC(=O)c2nnc(Cc3ccccc3)[nH]2)c1 [Example 14, 5-benzyl-N-(4-(5-fluoro-2-methoxyphenyl)pyridin-2-yl)-4H-1,2,4-triazole-3-carboxamide] | 1000 to 10000
COc1ccc(Cl)cc1-c1ccnc(NC(=O)c2nnc(Cc3ccccc3)[nH]2)c1 [Example 15, 5-benzyl-N-(4-(5-chloro-2-methoxyphenyl)pyridin-2-yl)-4H-1,2,4-triazole-3-carboxamide] | 1000 to 10000
COc1ccc(C)cc1-c1ccnc(NC(=O)c2nnc(Cc3ccccc3)[nH]2)c1 [Example 16, 5-benzyl-N-(4-(2-methoxy-5-methylphenyl)pyridin-2-yl)-4H-1,2,4-triazole-3-carboxamide] | 1000 to 10000
COc1ccc(C(C)C)cc1-c1ccnc(NC(=O)c2nnc(Cc3ccccc3)[nH]2)c1 [Example 17, 5-benzyl-N-(4-(5-isopropyl-2-methoxyphenyl)pyridin-2-yl)-4H-1,2,4-triazole-3-carboxamide] | > 10000
COc1ccc(OC)c(-c2ccnc(NC(=O)c3nnc(Cc4ccccc4)[nH]3)c2)c1 [Example 18, 5-benzyl-N-(4-(2,5-dimethoxyphenyl)pyridin-2-yl)-4H-1,2,4-triazole-3-carboxamide] | 1000 to 10000
COc1ccc(C(F)(F)F)cc1-c1ccnc(NC(=O)c2nnc(Cc3ccccc3)[nH]2)c1 [Example 19, 5-benzyl-N-(4-(2-methoxy-5-(trifluoromethyl)phenyl)pyridin-2-yl)-4H-1,2,4-triazole-3-carboxamide] | 1000 to 10000
Cc1ncccc1-c1ccnc(NC(=O)c2nnc(Cc3ccccc3)[nH]2)c1 [Example 20, 5-benzyl-N-(2-methyl-[3,4′-bipyridin]-2′-yl)-4H-1,2,4-triazole-3-carboxamide] | 100 to 1000
COc1ncccc1-c1ccnc(NC(=O)c2nnc(Cc3ccccc3)[nH]2)c1 [Example 21, 5-benzyl-N-(2-methoxy-[3,4′-bipyridin]-2′-yl)-4H-1,2,4-triazole-3-carboxamide] | 1000 to 10000
CCOc1ncccc1-c1ccnc(NC(=O)c2nnc(Cc3ccccc3)[nH]2)c1 [Example 22, 5-benzyl-N-(2-ethoxy-[3,4′-bipyridin]-2′-yl)-4H-1,2,4-triazole-3-carboxamide] | 1000 to 10000
CC(C)Oc1ncccc1-c1ccnc(NC(=O)c2nnc(Cc3ccccc3)[nH]2)c1 [Example 23, 5-benzyl-N-(2-isopropyloxy-[3,4′-bipyridin]-2′-yl)-4H-1,2,4-triazole-3-carboxamide] | > 10000
Cc1cnccc1-c1ccnc(NC(=O)c2nnc(Cc3ccccc3)[nH]2)c1 [Example 24, 5-benzyl-N-(3′-methyl-[4,4′-bipyridin]-2-yl)-4H-1,2,4-triazole-3-carboxamide] | 100 to 1000
COc1cnccc1-c1ccnc(NC(=O)c2nnc(Cc3ccccc3)[nH]2)c1 [Example 25, 5-benzyl-N-(3′-methoxy-[4,4′-bipyridin]-2-yl)-4H-1,2,4-triazole-3-carboxamide] | 1000 to 10000
Cn1nccc1-c1ccnc(NC(=O)c2nnc(Cc3ccccc3)[nH]2)c1 [Example 26, 5-benzyl-N-(4-(1-methyl-1H-pyrazol-5-yl)pyridin-2-yl)-4H-1,2,4-triazole-3-carboxamide] | 100 to 1000
Cc1cc(-c2ccnc(NC(=O)c3nnc(Cc4ccccc4)[nH]3)c2)n(C)n1 [Example 27, 5-benzyl-N-(4-(1,3-dimethyl-1H-pyrazol-5-yl)pyridin-2-yl)-4H-1,2,4-triazole-3-carboxamide] | 1000 to 10000
Cn1nc(C(F)(F)F)cc1-c1ccnc(NC(=O)c2nnc(Cc3ccccc3)[nH]2)c1 [Example 28, 5-benzyl-N-(4-(1-methyl-3-(trifluoromethyl)-1H-pyrazol-5-yl)pyridin-2-yl)-4H-1,2,4-triazole-3-carboxamide] | 1000 to 10000
Cc1ccccc1-c1cncc(NC(=O)c2nnc(Cc3ccccc3)[nH]2)c1 [Example 29, 5-benzyl-N-(5-(o-methylphenyl)pyridin-3-yl)-4H-1,2,4-triazole-3-carboxamide] | > 10000
O=C(Nc1cncc(-c2ccccc2Cl)c1)c1nnc(Cc2ccccc2)[nH]1 [Example 30, 5-benzyl-N-(5-(2-chlorophenyl)pyridin-3-yl)-4H-1,2,4-triazole-3-carboxamide] | > 10000
COc1ccc(Cl)c(-c2cncc(NC(=O)c3nnc(Cc4ccccc4)[nH]3)c2)c1 [Example 31, 5-benzyl-N-(5-(2-chloro-5-methoxyphenyl)pyridin-3-yl)-4H-1,2,4-triazole-3-carboxamide] | > 10000
